Results as given in ChEMBL document CHEMBL1201862, “PubChem BioAssay data set” (2004).
Calls of active or inactive are those of the source.

Assays:
[1] = biological target: Melanin-concentrating hormone receptor 1 (Homo sapiens, UniProt Q99705); assay: Fluorescence-based counterscreen for antagonists of the G-protein coupled receptor 7 (GPR7): cell-based high throughput dose response assay to identify antagonists of the melanin-concentrating hormone receptor 1 (MCHR1).; format: functional
[2] = biological target: T1, Neuropeptides B/W receptor type 1 (Homo sapiens, UniProt P48145); assay: Fluorescence-based dose response cell-based high throughput screening assay to identify antagonists of the G-protein coupled receptor 7 (GPR7). [Related pubchem assays: 1952 (Screening assay (GPR7 antagonists).), 1880 (Summary AID.)]; format: functional
T1 sequence (P48145 whole entry): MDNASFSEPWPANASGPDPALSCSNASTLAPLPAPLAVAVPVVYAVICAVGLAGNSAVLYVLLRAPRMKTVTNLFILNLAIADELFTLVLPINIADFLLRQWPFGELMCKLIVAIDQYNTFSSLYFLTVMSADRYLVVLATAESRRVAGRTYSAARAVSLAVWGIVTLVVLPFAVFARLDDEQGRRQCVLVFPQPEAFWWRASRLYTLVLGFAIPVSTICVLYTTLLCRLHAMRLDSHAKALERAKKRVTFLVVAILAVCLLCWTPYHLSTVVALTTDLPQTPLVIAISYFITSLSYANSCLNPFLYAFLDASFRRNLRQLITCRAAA

[3] = biological target: Alkaline phosphatase, placental type (Homo sapiens, UniProt P05187); assay: human placental alkaline phosphatase inhibition – biochemical, luminescence, confirmation (AID 1512); format: functional
[4] = biological target: T2, Alkaline phosphatase, tissue-nonspecific isozyme (Homo sapiens, UniProt P05186); assay: potency against alkaline phosphatase TNAP – biochemical, luminescent, dose response, SAR follow-up (AID 1056)
T2 sequence (P05186 whole entry): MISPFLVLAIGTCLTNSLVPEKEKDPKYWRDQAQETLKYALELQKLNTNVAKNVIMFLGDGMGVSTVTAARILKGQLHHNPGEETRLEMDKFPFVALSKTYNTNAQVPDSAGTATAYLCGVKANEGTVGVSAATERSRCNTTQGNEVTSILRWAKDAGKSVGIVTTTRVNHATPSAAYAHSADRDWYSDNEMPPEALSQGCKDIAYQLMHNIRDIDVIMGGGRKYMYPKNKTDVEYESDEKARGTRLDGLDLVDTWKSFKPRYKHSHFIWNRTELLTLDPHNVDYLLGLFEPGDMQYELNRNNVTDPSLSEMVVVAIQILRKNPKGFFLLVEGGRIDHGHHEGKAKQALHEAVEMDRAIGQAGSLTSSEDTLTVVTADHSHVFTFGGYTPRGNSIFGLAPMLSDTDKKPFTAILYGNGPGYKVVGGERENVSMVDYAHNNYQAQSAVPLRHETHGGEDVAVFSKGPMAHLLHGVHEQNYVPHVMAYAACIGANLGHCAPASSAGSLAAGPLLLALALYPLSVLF

[5] = biological target: T3, Voltage-gated N-type calcium channel alpha-1B subunit/Amyloid beta A4 precursor protein-binding family A member 1 (Homo sapiens, UniProt Q00975+Q02410); format: protein assay
[6] = biological target: T3, Voltage-gated N-type calcium channel alpha-1B subunit/Amyloid beta A4 precursor protein-binding family A member 1; format: protein assay; remark: listed apart in the source
[7] = biological target: Eukaryotic translation initiation factor 4E (Mus musculus, UniProt P63073); assay: blockers of eIF4G binding by eIF4E – biochemical, TR-FRET, dose response (AID 855); format: functional;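 note: potency for disrupting eIF4E binding to eIF4GI seen as loss of FRET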
[8] = biological target: T4, Eukaryotic translation initiation factor 2-alpha kinase 3 (Homo sapiens, UniProt Q9NZJ5); assay: Counterscreen assay for PERK inhibitors: Dose response cell-based high throughput screening assay to measure inhibition of PERK at 6 hours. [Related pubchem assays: 1522, 1416 ]; format: functional
T4 sequence (Q9NZJ5 whole entry): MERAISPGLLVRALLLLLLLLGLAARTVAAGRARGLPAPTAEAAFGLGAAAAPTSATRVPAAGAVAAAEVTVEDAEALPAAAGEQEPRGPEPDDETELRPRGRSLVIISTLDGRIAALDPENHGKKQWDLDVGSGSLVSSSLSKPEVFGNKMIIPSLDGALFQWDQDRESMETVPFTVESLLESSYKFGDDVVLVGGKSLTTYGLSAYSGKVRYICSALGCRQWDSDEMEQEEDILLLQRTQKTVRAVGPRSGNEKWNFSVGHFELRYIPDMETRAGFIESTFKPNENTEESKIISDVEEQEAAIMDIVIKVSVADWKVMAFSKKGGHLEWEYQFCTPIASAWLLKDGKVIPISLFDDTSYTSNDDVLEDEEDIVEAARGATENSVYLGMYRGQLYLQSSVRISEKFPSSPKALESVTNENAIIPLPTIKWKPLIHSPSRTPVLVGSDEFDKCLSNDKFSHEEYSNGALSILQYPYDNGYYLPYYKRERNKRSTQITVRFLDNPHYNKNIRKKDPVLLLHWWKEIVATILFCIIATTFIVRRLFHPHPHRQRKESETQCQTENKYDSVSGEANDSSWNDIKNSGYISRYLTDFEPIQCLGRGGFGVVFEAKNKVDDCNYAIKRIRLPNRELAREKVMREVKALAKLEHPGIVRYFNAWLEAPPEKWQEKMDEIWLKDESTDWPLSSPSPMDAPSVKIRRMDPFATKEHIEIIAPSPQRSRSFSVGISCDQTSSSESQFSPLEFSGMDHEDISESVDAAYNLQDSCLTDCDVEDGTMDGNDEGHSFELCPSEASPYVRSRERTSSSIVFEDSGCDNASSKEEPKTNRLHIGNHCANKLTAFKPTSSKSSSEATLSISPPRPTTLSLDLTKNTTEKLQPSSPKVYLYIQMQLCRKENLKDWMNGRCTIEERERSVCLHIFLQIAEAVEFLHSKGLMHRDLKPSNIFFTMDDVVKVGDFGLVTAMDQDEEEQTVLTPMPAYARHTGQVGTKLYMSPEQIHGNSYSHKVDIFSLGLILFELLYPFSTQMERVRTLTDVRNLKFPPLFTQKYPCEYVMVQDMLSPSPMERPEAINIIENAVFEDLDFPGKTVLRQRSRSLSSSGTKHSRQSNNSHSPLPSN

[9] = biological target: T4, Eukaryotic translation initiation factor 2-alpha kinase 3; assay: Dose response cell-based high-throughput screening assay to measure PERK inhibition. [Related pubchem assays: 1416 ]; format: functional
[10] = biological target: Glyceraldehyde-3-phosphate dehydrogenase (Homo sapiens, UniProt P04406)
Estrogen receptor beta [11] = biological target: T5, Estrogen receptor beta (Homo sapiens, UniProt Q92731); assay: blockers of SRC-3 recruitment to ERβ – biochemical, ELISA, streptavidin-HRP readout, orthogonal assay, confirmation (AID 1060)
[12] = alpha-synuclein stem-loop luciferase translation blockers – H4 neuroglioma cells, luminescence, confirmation (AID 1988); format: functional, cell-based
[13] = Luminescence Cell-Based Dose Response HTS to Identify Inhibitors of 5'UTR Stem-Loop Driven Prion Protein mRNA Translation in H4 Neuroglioblastoma Cells. [Related pubchem assays: 1827 (Project Summary), 1813 (Primary HTS)]; format: functional
[14] = luciferase reporter signal suppression in cells – H4 neuroglioma cells, luminescence, dose response (AID 1990); format: functional, cell-based
Estrogen receptor beta [15] = biological target: T5, Estrogen receptor beta

T3 sequence (Q00975 whole entry): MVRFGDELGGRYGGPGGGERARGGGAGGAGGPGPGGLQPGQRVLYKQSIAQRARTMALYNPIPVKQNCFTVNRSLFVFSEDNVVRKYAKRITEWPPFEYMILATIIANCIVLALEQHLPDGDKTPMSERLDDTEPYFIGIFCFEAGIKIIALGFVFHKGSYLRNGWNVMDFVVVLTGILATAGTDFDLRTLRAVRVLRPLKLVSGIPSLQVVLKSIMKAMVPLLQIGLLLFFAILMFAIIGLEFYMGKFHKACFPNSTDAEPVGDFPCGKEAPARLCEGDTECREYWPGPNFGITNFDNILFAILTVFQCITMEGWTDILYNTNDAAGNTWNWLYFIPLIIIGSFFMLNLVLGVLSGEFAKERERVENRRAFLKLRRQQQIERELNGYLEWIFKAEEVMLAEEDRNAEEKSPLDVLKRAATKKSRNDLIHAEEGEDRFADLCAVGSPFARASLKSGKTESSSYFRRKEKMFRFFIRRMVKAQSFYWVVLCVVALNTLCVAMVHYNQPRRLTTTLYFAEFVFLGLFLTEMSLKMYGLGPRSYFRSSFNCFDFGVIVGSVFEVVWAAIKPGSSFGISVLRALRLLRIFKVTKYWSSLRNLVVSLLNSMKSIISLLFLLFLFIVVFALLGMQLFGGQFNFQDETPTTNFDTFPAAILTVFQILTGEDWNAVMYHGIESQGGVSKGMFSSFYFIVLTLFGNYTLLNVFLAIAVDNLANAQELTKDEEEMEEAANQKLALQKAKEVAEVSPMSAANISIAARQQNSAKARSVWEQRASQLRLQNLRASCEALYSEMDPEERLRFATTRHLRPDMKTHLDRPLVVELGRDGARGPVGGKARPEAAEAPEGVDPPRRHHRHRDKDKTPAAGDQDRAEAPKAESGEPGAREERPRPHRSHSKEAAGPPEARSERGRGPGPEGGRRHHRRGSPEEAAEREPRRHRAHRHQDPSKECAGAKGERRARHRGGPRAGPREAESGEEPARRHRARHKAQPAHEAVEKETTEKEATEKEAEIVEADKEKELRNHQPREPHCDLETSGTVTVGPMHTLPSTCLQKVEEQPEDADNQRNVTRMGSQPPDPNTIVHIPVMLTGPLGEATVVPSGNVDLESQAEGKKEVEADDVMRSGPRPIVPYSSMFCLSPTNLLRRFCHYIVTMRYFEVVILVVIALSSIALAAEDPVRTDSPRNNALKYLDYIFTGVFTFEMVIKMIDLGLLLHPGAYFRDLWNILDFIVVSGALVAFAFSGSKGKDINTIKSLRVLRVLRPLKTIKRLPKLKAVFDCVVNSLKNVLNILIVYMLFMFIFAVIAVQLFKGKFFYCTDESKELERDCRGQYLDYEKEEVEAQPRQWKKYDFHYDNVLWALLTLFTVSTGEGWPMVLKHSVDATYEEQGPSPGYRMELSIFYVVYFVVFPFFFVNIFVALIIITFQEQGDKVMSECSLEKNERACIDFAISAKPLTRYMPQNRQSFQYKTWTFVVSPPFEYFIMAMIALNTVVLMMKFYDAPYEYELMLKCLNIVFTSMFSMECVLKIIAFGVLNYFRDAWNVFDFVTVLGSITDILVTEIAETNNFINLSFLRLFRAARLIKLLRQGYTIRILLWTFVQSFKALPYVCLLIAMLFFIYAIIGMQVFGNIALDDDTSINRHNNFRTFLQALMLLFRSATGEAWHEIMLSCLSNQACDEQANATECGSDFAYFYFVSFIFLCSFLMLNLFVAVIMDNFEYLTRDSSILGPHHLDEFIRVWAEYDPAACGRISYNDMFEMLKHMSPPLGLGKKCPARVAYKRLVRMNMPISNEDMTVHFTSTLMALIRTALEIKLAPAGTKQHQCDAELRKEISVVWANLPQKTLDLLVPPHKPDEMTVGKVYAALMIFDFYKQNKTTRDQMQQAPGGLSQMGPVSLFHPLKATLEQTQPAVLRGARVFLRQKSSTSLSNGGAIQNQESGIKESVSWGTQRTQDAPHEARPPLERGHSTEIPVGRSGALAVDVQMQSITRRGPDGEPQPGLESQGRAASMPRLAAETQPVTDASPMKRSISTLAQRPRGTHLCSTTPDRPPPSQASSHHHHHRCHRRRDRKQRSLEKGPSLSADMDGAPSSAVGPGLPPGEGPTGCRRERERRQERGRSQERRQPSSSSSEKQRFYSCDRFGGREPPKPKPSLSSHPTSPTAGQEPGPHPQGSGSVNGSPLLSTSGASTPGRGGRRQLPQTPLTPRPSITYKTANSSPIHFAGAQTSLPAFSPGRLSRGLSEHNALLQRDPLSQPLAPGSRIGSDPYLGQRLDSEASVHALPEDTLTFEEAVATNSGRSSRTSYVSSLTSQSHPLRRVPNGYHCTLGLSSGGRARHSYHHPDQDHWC
T3 sequence (Q02410 whole entry): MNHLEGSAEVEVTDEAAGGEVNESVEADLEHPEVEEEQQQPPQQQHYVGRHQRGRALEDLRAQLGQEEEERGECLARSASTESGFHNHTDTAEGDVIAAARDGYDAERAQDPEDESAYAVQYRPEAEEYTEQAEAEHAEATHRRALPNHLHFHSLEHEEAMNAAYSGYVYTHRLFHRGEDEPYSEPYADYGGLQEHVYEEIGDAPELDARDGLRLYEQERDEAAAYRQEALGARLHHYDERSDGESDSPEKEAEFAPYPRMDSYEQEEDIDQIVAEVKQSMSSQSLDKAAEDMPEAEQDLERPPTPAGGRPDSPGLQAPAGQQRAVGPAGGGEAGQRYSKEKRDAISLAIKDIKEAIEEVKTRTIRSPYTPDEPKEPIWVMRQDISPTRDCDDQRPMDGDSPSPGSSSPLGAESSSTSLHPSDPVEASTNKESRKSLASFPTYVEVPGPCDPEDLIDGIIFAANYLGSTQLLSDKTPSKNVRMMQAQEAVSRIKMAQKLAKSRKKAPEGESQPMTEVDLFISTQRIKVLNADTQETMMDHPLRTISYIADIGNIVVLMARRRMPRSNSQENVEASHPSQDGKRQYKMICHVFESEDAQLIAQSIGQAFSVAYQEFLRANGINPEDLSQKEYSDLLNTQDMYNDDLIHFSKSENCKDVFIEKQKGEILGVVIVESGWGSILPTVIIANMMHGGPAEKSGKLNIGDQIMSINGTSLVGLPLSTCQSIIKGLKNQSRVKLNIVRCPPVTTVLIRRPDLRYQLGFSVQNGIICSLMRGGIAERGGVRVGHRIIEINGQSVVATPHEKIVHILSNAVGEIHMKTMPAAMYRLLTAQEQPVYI
Sequence of Alkaline phosphatase, placental type (P05187 whole entry): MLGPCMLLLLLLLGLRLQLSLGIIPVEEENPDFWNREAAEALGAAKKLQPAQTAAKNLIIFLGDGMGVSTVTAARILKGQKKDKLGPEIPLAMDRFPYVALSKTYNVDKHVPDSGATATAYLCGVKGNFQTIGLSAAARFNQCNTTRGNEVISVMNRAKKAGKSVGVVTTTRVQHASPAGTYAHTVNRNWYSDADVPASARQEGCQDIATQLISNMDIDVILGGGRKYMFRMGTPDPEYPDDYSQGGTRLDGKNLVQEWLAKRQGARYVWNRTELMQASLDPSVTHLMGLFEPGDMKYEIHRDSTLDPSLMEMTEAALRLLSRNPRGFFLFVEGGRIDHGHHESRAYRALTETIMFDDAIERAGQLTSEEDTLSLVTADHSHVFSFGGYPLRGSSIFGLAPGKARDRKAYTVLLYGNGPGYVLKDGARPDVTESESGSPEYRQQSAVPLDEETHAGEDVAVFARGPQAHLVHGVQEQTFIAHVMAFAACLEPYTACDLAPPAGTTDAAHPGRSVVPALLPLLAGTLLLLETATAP
T5 sequence (Q92731 whole entry): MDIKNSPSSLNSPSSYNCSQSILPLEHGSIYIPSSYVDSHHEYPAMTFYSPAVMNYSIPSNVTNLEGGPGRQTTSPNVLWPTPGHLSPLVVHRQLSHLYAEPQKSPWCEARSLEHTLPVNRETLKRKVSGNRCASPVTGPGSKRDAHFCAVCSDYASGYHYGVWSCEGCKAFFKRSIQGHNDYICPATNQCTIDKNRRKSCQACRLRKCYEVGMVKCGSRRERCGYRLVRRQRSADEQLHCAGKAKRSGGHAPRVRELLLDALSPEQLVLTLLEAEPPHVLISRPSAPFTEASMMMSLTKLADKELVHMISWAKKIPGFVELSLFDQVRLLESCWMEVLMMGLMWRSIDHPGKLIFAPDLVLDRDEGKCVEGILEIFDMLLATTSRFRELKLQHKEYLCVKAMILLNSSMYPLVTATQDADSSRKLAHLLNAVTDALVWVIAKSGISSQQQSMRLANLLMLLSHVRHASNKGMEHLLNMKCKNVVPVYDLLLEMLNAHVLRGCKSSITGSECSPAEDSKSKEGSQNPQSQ
Sequence of Glyceraldehyde-3-phosphate dehydrogenase (P04406 whole entry): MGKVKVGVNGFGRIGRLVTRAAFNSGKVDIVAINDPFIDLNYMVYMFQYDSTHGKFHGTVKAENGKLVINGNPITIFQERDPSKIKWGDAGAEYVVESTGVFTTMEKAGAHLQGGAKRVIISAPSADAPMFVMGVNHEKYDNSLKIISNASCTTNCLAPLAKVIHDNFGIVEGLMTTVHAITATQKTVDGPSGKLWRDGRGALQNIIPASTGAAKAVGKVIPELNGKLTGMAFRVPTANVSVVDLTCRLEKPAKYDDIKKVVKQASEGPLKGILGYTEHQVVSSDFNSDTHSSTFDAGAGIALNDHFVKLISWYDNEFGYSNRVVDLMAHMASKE
Sequence of Melanin-concentrating hormone receptor 1 (Q99705 whole entry): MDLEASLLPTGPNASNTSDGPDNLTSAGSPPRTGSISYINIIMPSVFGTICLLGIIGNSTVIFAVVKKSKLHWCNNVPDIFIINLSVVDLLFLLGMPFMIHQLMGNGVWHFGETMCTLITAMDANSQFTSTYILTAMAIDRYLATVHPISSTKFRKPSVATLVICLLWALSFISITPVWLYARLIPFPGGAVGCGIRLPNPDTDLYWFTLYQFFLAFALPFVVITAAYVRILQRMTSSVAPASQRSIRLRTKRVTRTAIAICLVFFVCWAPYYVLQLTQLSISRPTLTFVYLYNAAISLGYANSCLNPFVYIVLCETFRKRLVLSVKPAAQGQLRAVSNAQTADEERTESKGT

## COc1ccc(S(=O)(=O)N2CCN(CC(=O)Nc3cccc(OC)c3)CC2)cc1
[1]
  IC50: > 43.8 µM (not active)
[2]
  IC50: > 43.8 µM (not active)

## O=C(CNc1ccncc1)c1ccc(O)c(O)c1
[3]
  IC50: > 100 µM (inactive)
[4]
  IC50: > 100 µM (inactive)

## Cc1cc(C)c2c(=O)n(CC(=O)N3CCC(Cc4ccccc4)CC3)sc2n1
[5]
  IC50: > 50 µM (inactive)
[6]
  IC50: 15.5 µM (active)

## CC1CCCCN1C(=O)Cn1c(=O)n(-c2ccc(F)cc2)c(=O)c2sccc21 (centres undefined)
[7]
  IC50: 50 µM (inactive)

## COC(=O)C(NC(C)=O)(Nc1ccc(C)cn1)C(F)(F)F (centres undefined)
[8]
  EC50: > 55.7 µM (not active)
[9]
  EC50: > 55.7 µM (not active)

## CN1C(=O)C(Cl)(Cl)C(=O)c2ccccc21
[5]
  IC50: 2.75 µM (active)
[6]
  IC50: 34.5 µM (active)

## CC(C)c1nc(N)nn1-c1ccccc1
[3]
  IC50: > 100 µM (inactive)
[4]
  IC50: > 100 µM (inactive)
[10]
  IC50: > 100 µM (not active)

## Oc1ccccc1-c1nnc(SCCN2CCOCC2)n1Cc1ccccc1
Estrogen receptor beta [11]
  IC50: < 23 nM (not active)
[12]
  EC50: 7.29 µM (active)
[13]
  EC50: 8.21 µM (active)
[14]
  EC50: 9.74 µM (active)
Estrogen receptor beta [15]
  IC50: 3.51 µM (active)
